Data reported in ChEMBL document CHEMBL4014351, “Discovery of Allosteric Inhibitors Targeting the Spliceosomal RNA Helicase Brr2” (J Med Chem, 2017).
≈ marks a conversion by molar mass, not a printed value.

molecular target: Eukaryotic initiation factor 4A-III (Homo sapiens, UniProt P38919); test: not given; conditions: not given
Sequence (P38919 whole entry): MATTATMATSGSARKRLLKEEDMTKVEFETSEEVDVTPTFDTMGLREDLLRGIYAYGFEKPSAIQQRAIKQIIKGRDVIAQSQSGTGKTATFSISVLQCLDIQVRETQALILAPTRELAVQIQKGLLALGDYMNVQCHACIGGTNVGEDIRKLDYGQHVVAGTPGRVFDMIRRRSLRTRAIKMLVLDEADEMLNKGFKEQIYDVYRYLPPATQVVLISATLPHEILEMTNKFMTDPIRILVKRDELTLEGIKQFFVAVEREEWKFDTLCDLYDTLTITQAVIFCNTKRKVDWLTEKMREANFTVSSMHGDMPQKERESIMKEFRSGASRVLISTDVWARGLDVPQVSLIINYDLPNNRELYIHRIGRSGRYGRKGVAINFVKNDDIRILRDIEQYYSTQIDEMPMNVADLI

**Q.** With `O=C1Nc2cc(=O)n(Cc3ccccc3)cc2CN1c1cccc(OCc2cncs2)c1` as the compound, how does the IC50 read?
**A.** The IC50 was > 100 µM.

**Q.** For `N=C1/C(=C/c2ccc(-c3cccc(C(=O)O)c3)o2)C(=O)N=C2SC(C3CCCCC3)=NN12`, which IC50 is on record?
**A.** Its IC50 is 32 µM.

**Q.** Which IC50 does the source give for `O=C1Nc2cc(=O)n(Cc3ccccc3)cc2CN1c1cccc(OCc2cccnc2)c1` here?
**A.** Its IC50 is > 100 µM.

**Q.** For `Cc1cc2c(cc1N1Cc3cn(Cc4ccccc4)c(=O)cc3NC1=O)OC(c1ncccc1F)CC2` (racemic), which IC50 is on record?
**A.** Its IC50 is > 100 µM.

system: not listed separately; test: physchem; conditions: 1-octanol/aqueous buffer, pH 7.4

**Q.** For `O=C1Nc2cc(=O)n(Cc3ccccc3)cc2CN1c1cccc(OCc2ccccn2)c1`, which chromatographic logD is on record?
**A.** The chromatographic logD was 2.

**Q.** For `O=C1Nc2cc(=O)n(Cc3ccccc3)cc2CN1c1cccc(OCc2cncs2)c1`, which chromatographic logD is on record?
**A.** The chromatographic logD was 1.7.

**Q.** Which chromatographic logD does the source give for `O=C1Nc2cc(=O)n(Cc3ccccc3)cc2CN1c1cccc(OCc2cccnc2)c1` here?
**A.** Its chromatographic logD is 1.9.

molecular target: T1, ATP-dependent RNA helicase DHX29 (Homo sapiens, UniProt Q7Z478); test: biochemical; conditions: not given
T1 sequence (Q7Z478 whole entry): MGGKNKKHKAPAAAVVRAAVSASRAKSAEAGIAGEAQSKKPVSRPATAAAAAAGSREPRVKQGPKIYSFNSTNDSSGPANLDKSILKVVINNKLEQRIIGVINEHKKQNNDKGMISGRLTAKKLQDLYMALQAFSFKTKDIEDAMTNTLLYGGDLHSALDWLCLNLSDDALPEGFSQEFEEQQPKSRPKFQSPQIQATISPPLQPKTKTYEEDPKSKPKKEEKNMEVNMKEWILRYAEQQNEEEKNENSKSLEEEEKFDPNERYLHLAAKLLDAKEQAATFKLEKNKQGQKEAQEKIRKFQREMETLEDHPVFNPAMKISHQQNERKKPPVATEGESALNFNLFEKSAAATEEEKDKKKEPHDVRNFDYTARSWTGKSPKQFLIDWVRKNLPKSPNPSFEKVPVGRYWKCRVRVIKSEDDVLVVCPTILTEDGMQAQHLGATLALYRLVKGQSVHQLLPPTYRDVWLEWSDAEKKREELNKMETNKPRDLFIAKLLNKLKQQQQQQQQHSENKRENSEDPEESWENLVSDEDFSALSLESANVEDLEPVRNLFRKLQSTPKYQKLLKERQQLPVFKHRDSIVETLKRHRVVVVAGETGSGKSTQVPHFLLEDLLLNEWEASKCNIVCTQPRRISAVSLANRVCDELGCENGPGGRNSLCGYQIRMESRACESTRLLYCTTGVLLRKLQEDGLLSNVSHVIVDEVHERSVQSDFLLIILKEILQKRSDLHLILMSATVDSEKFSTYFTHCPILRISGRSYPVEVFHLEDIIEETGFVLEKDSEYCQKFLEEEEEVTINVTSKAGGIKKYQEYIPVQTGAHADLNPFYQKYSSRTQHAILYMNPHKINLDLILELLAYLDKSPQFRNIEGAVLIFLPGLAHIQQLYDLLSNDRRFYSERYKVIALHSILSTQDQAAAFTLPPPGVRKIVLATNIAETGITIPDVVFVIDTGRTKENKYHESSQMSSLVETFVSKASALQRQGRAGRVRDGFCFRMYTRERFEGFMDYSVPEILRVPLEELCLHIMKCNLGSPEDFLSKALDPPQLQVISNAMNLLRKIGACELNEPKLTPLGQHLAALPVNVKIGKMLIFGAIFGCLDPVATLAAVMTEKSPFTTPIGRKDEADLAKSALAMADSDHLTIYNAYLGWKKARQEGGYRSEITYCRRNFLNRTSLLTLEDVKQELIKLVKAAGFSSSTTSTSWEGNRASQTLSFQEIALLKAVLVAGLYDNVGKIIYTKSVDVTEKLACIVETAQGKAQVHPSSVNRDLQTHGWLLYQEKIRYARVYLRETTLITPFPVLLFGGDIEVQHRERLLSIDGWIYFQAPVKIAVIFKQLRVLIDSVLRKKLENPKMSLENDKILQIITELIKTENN

**Q.** With `O=C1Nc2cc(=O)n(Cc3ccccc3)cc2CN1c1cccc(OCc2cncs2)c1` as the compound, how does the IC50 read?
**A.** Its IC50 is > 100 µM.

**Q.** With `N=C1/C(=C/c2ccc(-c3cccc(C(=O)O)c3)o2)C(=O)N=C2SC(C3CCCCC3)=NN12` as the compound, how does the IC50 read?
**A.** Its IC50 is 58 µM.

**Q.** For `Cc1cc2c(cc1N1Cc3cn(Cc4ccccc4)c(=O)cc3NC1=O)OC(c1ncccc1F)CC2` (racemic), which IC50 is on record?
**A.** Its IC50 is > 100 µM.

system: not listed separately; test: physchem; conditions: aqueous buffer, pH 6.8
Description: Solubility of the compound in pH 6.8 aqueous buffer by UV absorbance method

**Q.** Which solubility does the source give for `O=C1Nc2cc(=O)n(Cc3ccccc3)cc2CN1c1cccc(OCc2ccccn2)c1` here?
**A.** Its solubility is 69 µg/mL (≈ 157 µM).

**Q.** For `O=C1Nc2cc(=O)n(Cc3ccccc3)cc2CN1c1cccc(OCc2cncs2)c1`, which solubility is on record?
**A.** Its solubility is 49 µg/mL (≈ 110 µM).

**Q.** With `O=C1Nc2cc(=O)n(Cc3ccccc3)cc2CN1c1cccc(OCc2cccnc2)c1` as the compound, how does the solubility read?
**A.** Its solubility is 59 µg/mL (≈ 135 µM).

molecular target: T2, U5 small nuclear ribonucleoprotein 200 kDa helicase (Homo sapiens, UniProt O75643); test: biochemical; conditions: not given
T2 sequence (O75643 whole entry): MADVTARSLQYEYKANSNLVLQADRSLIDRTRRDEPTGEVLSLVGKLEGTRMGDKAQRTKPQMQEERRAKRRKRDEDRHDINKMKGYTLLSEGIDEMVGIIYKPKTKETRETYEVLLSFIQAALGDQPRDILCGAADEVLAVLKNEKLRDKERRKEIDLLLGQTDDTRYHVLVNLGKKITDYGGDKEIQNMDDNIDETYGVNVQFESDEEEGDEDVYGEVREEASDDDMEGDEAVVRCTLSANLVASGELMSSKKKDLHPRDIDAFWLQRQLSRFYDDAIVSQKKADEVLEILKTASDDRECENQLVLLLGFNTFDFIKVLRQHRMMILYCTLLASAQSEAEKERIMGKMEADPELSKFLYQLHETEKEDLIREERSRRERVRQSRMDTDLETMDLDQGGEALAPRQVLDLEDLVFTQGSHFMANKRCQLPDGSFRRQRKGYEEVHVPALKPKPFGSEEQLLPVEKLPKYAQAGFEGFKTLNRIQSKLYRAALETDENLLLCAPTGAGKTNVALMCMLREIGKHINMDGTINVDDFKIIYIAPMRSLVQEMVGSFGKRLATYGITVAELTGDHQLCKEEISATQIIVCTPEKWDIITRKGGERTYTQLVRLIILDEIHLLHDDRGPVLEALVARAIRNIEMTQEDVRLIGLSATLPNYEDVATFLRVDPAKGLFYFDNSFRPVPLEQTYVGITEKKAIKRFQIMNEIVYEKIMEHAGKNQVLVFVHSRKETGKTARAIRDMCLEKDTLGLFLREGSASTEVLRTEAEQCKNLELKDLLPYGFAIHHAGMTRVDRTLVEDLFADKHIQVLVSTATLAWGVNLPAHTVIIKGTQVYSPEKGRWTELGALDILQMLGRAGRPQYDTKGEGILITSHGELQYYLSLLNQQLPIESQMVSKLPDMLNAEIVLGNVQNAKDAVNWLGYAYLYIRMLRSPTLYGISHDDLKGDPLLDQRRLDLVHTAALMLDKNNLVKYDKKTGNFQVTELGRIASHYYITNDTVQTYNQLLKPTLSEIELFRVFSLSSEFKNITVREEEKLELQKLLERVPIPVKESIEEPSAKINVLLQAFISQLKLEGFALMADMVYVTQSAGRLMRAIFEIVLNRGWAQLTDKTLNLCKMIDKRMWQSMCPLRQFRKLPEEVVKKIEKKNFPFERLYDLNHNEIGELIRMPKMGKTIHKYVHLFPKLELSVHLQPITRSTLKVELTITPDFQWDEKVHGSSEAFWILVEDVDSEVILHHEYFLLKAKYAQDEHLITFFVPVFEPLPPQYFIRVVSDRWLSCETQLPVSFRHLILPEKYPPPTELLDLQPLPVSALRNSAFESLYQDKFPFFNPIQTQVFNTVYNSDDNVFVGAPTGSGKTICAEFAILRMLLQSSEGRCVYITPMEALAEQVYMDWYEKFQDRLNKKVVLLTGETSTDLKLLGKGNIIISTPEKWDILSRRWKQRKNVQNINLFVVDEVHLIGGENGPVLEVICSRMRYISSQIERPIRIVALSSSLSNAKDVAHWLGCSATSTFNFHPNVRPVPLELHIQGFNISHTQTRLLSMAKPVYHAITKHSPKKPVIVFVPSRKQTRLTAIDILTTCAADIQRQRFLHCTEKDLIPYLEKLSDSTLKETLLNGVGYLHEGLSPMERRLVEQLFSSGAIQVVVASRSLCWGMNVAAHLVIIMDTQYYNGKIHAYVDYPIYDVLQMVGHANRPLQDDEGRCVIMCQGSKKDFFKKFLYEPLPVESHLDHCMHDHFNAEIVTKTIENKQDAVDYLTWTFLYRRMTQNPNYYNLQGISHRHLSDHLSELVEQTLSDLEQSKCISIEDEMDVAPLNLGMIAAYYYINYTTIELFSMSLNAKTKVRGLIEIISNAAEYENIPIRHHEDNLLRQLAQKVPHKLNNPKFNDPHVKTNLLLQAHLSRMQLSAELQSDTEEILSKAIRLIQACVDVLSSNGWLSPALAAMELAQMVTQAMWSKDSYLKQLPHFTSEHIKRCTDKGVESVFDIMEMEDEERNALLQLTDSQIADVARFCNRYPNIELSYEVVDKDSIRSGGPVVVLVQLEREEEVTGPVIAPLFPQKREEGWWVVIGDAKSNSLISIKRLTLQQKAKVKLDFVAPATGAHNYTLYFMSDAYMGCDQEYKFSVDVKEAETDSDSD

**Q.** Which IC50 does the source give for `O=C1Nc2cc(=O)n(Cc3ccccc3)cc2CN1c1cccc(OCc2cncs2)c1` here?
**A.** Its IC50 is 1.3 µM.

molecular target: T2, U5 small nuclear ribonucleoprotein 200 kDa helicase; test: biochemical; conditions: not given; remark: another data set of the same source

**Q.** For `O=C1Nc2cc(=O)n(Cc3ccccc3)cc2CN1c1cccc(OCc2cncs2)c1`, which IC50 is on record?
**A.** Its IC50 is 0.079 µM.

**Q.** With `N=C1/C(=C/c2ccc(-c3cccc(C(=O)O)c3)o2)C(=O)N=C2SC(C3CCCCC3)=NN12` as the compound, how does the IC50 read?
**A.** The IC50 was 5.3 µM.

**Q.** With `O=C1Nc2cc(=O)n(Cc3ccccc3)cc2CN1c1cccc(OCc2cccnc2)c1` as the compound, how does the IC50 read?
**A.** Its IC50 is 0.18 µM.

**Q.** With `Cc1cc2c(cc1N1Cc3cn(Cc4ccccc4)c(=O)cc3N(C)C1=O)OC(c1ncccc1F)CC2` (racemic) as the compound, how does the IC50 read?
**A.** The IC50 was > 100 µM.

**Q.** Which IC50 does the source give for `Cc1cc2c(cc1N1Cc3cn(Cc4ccccc4)c(=O)cc3NC1=O)OC(c1ncccc1F)CC2` (racemic) here?
**A.** The IC50 was 5.3 µM.

**Q.** With `Cc1cc2c(cc1N1Cc3cn(C)c(=O)cc3NC1=O)OC(c1ncccc1F)CC2` (racemic) as the compound, how does the IC50 read?
**A.** The IC50 was > 100 µM.

system: not listed separately; test: physchem; conditions: PAMPA, pH 7.4
Description: Permeability of the compound at 10 uM at pH 7.4 after 3 hrs by PAMPA

**Q.** Which Papp at 3 h, 10 µM does the source give for `O=C1Nc2cc(=O)n(Cc3ccccc3)cc2CN1c1cccc(OCc2ccccn2)c1` here?
**A.** Its Papp at 3 h, 10 µM is 27.3 ×10⁻⁶ cm/s.

**Q.** Which Papp at 3 h, 10 µM does the source give for `O=C1Nc2cc(=O)n(Cc3ccccc3)cc2CN1c1cccc(OCc2cncs2)c1` here?
**A.** Its Papp at 3 h, 10 µM is 13.1 ×10⁻⁶ cm/s.

**Q.** With `O=C1Nc2cc(=O)n(Cc3ccccc3)cc2CN1c1cccc(OCc2cccnc2)c1` as the compound, how does the Papp at 3 h, 10 µM read?
**A.** The Papp at 3 h, 10 µM was 14.2 ×10⁻⁶ cm/s.

molecular target: Eukaryotic initiation factor 4A-I (Homo sapiens, UniProt P60842); test: not given; conditions: not given
Sequence (P60842 whole entry): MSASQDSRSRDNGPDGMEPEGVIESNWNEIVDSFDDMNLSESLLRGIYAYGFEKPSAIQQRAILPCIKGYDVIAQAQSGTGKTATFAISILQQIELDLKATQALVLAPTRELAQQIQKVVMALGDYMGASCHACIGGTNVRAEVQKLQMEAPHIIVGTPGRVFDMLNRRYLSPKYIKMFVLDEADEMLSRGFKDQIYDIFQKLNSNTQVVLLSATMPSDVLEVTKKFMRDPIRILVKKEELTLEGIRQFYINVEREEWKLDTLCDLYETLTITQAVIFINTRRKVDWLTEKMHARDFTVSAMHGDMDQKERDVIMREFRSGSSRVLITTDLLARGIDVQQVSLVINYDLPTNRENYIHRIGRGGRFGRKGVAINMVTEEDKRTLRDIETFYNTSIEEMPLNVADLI

**Q.** For `O=C1Nc2cc(=O)n(Cc3ccccc3)cc2CN1c1cccc(OCc2cncs2)c1`, which IC50 is on record?
**A.** The IC50 was > 100 µM.

**Q.** Which IC50 does the source give for `N=C1/C(=C/c2ccc(-c3cccc(C(=O)O)c3)o2)C(=O)N=C2SC(C3CCCCC3)=NN12` here?
**A.** Its IC50 is 57 µM.

**Q.** Which IC50 does the source give for `O=C1Nc2cc(=O)n(Cc3ccccc3)cc2CN1c1cccc(OCc2cccnc2)c1` here?
**A.** The IC50 was > 100 µM.

**Q.** With `Cc1cc2c(cc1N1Cc3cn(Cc4ccccc4)c(=O)cc3NC1=O)OC(c1ncccc1F)CC2` (racemic) as the compound, how does the IC50 read?
**A.** The IC50 was > 100 µM.
